# Experimental data published in US20230339937A1, “CONDENSED RING COMPOUNDS THAT INHIBIT H-PGDS” (SATO PHARMACEUTICAL CO., LTD., priority 2020, published 2023).
# Biological target: T1, Recombinant human H-PGDS (Homo sapiens, UniProt O60760)
# T1 construct: made in house; host or cells: E. coli
# Test: H-PGDS inhibitory activity (prostaglandin D2 production from prostaglandin H2, measured by LC-MS/MS)
# Type: biochemical
# Conditions: recombinant human H-PGDS 1.0 nM expressed in E. coli; prostaglandin H2 25 μM; preincubated 15 minutes on ice, reacted on ice for 1 minute; concentration that inhibits prostaglandin D2 production by 50%
# Summary of the method: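 Recombinant human H-PGDS (E. coli-expressed, 1.0 nM final) preincubated with compound 15 min on ice in 20 mM Tris-HCl pH 8.0, 2 mM MgCl2, 2 mM GSH, 0.5 mg/mL γ-globulin. Reaction with 25 µM PGH2 run 1 min on ice, stopped with FeCl2/citric acid, PGD2 quantified by LC-MS/MS. Activity expressed as % of DMSO control after subtracting non-enzymatic PGD2.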
# T1 sequence (O60760 whole entry): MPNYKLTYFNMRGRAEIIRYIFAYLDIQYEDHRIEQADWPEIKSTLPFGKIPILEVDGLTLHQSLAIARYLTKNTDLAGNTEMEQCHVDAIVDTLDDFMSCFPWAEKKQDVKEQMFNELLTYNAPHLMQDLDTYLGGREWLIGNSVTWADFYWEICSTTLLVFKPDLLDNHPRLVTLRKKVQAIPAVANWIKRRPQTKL
row,IC50 [nM],SMILES
1,4.8,"O=C(N[C@@H]1CCC[C@H](O)C1)c1ccc(-c2nccc3occc23)cc1 (relative stereo) [Example 265, 4-(furo[3,2-c]pyridin-4-yl)-N-(cis-3-hydroxycyclohexyl)benzamide]"
2,26,"CC(C)(O)[C@H]1CC[C@H](NC(=O)c2ccc(-c3nccc4occc34)c(Cl)c2)CC1 [Example 131, 3-chloro-4-(furo[3,2-c]pyridin-4-yl)-N-[trans-4-(2-hydroxypropan-2-yl)cyclohexyl]benzamide]"
3,1.6,"CC(C)(O)[C@H]1CC[C@H](NC(=O)c2ccc(-c3nc(CO)cc4occc34)cc2)CC1 [Example 319, 4-[6-(hydroxymethyl)furo[3,2-c]pyridin-4-yl]-N-[trans-4-(2-hydroxypropan-2-yl)cyclohexyl]benzamide]"
4,16,"CC(C)(O)[C@H]1CC[C@H](NC(=O)c2ccc(-c3nccc4occc34)c(C#N)c2)CC1 [Example 133, 3-cyano-4-(furo[3,2-c]pyridin-4-yl)-N-[trans-4-(2-hydroxypropan-2-yl)cyclohexyl]benzamide]"
5,0.85,"O=C(NCCCCCCO)c1ccc(-c2nccc3[nH]ccc23)cc1 [Example 17, N-(6-hydroxyhexyl)-4-(1H-pyrrolo[3,2-c]pyridin-4-yl)benzamide]"
6,7.4,"Cn1ccc2c(-c3ccc(C(=O)N[C@H]4CC[C@H](C(C)(C)O)CC4)cc3)nccc21 [Example 4, N-[trans-4-(2-hydroxypropan-2-yl)cyclohexyl]-4-(1-methyl-1H-pyrrolo[3,2-c]pyridin-4-yl)benzamide]"
7,2.4,"O=C(N[C@H]1CC[C@](O)(C2CC2)CC1)c1ccc(-c2nccc3occc23)cc1 [Example 291, N-(cis-4-cyclopropyl-4-hydroxycyclohexyl)-4-(furo[3,2-c]pyridin-4-yl)benzamide]"
8,251,"CC(C)(O)[C@H]1CC[C@H](NC(=O)c2ccc(-c3ncc(C#N)c4occc34)cc2)CC1 [Example 139, 4-(7-cyanofuro[3,2-c]pyridin-4-yl)-N-[trans-4-(2-hydroxypropan-2-yl)cyclohexyl]benzamide]"
9,1.4,"CCCCNC(=O)c1ccc(-c2nccc3[nH]ccc23)cc1 [Example 7, N-butyl-4-(1H-pyrrolo[3,2-c]pyridin-4-yl)benzamide]"
10,2.6,"O=C(N[C@H]1CC[C@H](C(F)F)CC1)c1ccc(-c2nccc3occc23)cc1 [Example 310, N-[trans-4-(difluoromethyl)cyclohexyl]-4-(furo[3,2-c]pyridin-4-yl)benzamide]"
11,0.75,"CC(C)(O)[C@H]1CC[C@H](NC(=O)c2ccc(-c3nccc4[nH]ccc34)cc2)CC1 [Example 2, N-[trans-4-(2-hydroxypropan-2-yl)cyclohexyl]-4-(1H-pyrrolo[3,2-c]pyridin-4-yl)benzamide]"
12,1.2,"O=C(NC1CCN(C(=O)C2CC2)CC1)c1ccc(-c2nccc3occc23)cc1 [Example 235, N-[1-(cyclopropanecarbonyl)piperidin-4-yl]-4-(furo[3,2-c]pyridin-4-yl)benzamide]"
13,27,"CC(C)(O)[C@]1(O)CC[C@@H](NC(=O)c2ccc(-c3nccc4occc34)cc2)CC1 [Example 350, 4-(furo[3,2-c]pyridin-4-yl)-N-[cis-4-hydroxy-4-(2-hydroxypropan-2-yl)cyclohexyl]benzamide]"
14,2.3,"Cc1cc2occc2c(-c2ccc(C(=O)N[C@H]3CC[C@H](O)CC3)cc2)n1 [Example 333, N-(trans-4-hydroxycyclohexyl)-4-(6-methylfuro[3,2-c]pyridin-4-yl)benzamide]"
15,1.3,"CC[C@]1(O)CC[C@@H](NC(=O)c2ccc(-c3nccc4occc34)cc2)CC1 [Example 290, N-(cis-4-ethyl-4-hydroxycyclohexyl)-4-(furo[3,2-c]pyridin-4-yl)benzamide]"

# More lines, now with the values behind:
row,SMILES,IC50 [nM]
1,"CS(=O)(=O)c1cccc(NC(=O)c2ccc(-c3nccc4occc34)cc2)c1 [Example 106, 4-(furo[3,2-c]pyridin-4-yl)-N-[3-(methylsulfonyl)phenyl]benzamide]",3.7
2,"CC(C)(O)[C@H]1CC[C@H](NC(=O)c2ccc(-c3nc(CO)cc4occc34)c(F)c2)CC1 [Example 322, 3-fluoro-4-[6-(hydroxymethyl)furo[3,2-c]pyridin-4-yl]-N-[trans-4-(2-hydroxypropan-2-yl)cyclohexyl]benzamide]",3.2
3,"O=C(N[C@H]1CCN(c2ncc(F)cn2)C1)c1ccc(-c2nccc3occc23)cc1 [Example 194, (S)-N-[1-(5-fluoropyrimidin-2-yl)pyrrolidin-3-yl]-4-(furo[3,2-c]pyridin-4-yl)benzamide]",0.94
4,"O=C(N[C@H]1C[C@H](O)C1)c1ccc(-c2nccc3occc23)cc1 [Example 270, 4-(furo[3,2-c]pyridin-4-yl)-N-(trans-3-hydroxycyclobutyl)benzamide]",6.4
5,"O=C(NCc1cccnc1)c1ccc(-c2nccc3occc23)cc1 [Example 77, 4-(furo[3,2-c]pyridin-4-yl)-N-(pyridin-3-ylmethyl) benzamide]",24
6,"O=C(NC1CCN(c2cc(Cl)ncn2)CC1)c1ccc(-c2nccc3occc23)cc1 [Example 146, N-[1-(6-chloropyrimidin-4-yl)piperidin-4-yl]-4-(furo[3,2-c]pyridin-4-yl)benzamide]",1
7,"CC(C)(O)CNC(=O)c1ccc(-c2nccc3occc23)cc1 [Example 92, 4-(furo[3,2-c]pyridin-4-yl)-N-(2-hydroxy-2-methylpropyl) benzamide]",22
8,"Cc1cc(NC(=O)c2ccc(-c3nccc4occc34)cc2)ccc1S(N)(=O)=O [Example 116, 4-(furo[3,2-c]pyridin-4-yl)-N-(3-methyl-4-sulfamoylphenyl) benzamide]",1.6
9,"CCCn1ccc(CNC(=O)c2ccc(-c3nccc4[nH]ccc34)cc2)n1 [Example 44, N-[(1-propyl-1H-pyrazol-3-yl)methyl]-4-(1H-pyrrolo[3,2-c]pyridin-4-yl)benzamide]",0.98
10,"O=C(NC1CC2(CNC2)C1)c1ccc(-c2nccc3occc23)cc1 [Example 209, 4-(furo[3,2-c]pyridin-4-yl)-N-(2-azaspiro[3.3]heptan-6-yl)benzamide]",39
11,"O=C(NC1CCN(c2nccc(CO)n2)CC1)c1ccc(-c2nccc3occc23)cc1 [Example 187, 4-(furo[3,2-c]pyridin-4-yl)-N-{1-[4-(hydroxymethyl)pyrimidin-2-yl]piperidin-4-yl}benzamide]",0.8
12,"O=C(N[C@H]1CCN(CC(F)(F)F)C1)c1ccc(-c2nccc3occc23)cc1 [Example 199, (S)-4-(furo[3,2-c]pyridin-4-yl)-N-[1-(2,2,2-trifluoroethyl)pyrrolidin-3-yl]benzamide]",9.7
13,"O=C(NC1CCC2(CC1)COC2)c1ccc(-c2nccc3occc23)cc1 [Example 284, 4-(furo[3,2-c]pyridin-4-yl)-N-(2-oxaspiro[3.5]nonan-7-yl)benzamide]",1.7
14,"O=C(NC1CCN(C2COC2)CC1)c1ccc(-c2nccc3occc23)cc1 [Example 236, 4-(furo[3,2-c]pyridin-4-yl)-N-[1-(oxetan-3-yl)piperidin-4-yl]benzamide]",1.1
15,"O=C(NC1CCN(c2ccc(CO)cn2)CC1)c1ccc(-c2nccc3occc23)cc1 [Example 169, 4-(furo[3,2-c]pyridin-4-yl)-N-{1-[5-(hydroxymethyl)pyridin-2-yl]piperidin-4-yl}benzamide]",3
16,"CC(C)(O)c1cnc(N2CCC(NC(=O)c3ccc(-c4nccc5occc45)cc3)CC2)nc1 [Example 185, 4-(furo[3,2-c]pyridin-4-yl)-N-{1-[5-(2-hydroxypropan-2-yl)pyrimidin-2-yl]piperidin-4-yl}benzamide]",1.7
17,"O=C(N[C@H]1CCCC[C@@H]1O)c1ccc(-c2nccc3occc23)cc1 (relative stereo) [Example 274, 4-(furo[3,2-c]pyridin-4-yl)-N-(trans-2-hydroxycyclohexyl)benzamide]",13
18,"Cc1cc2occc2c(-c2ccc(C(=O)NC3CCN(c4nnnn4C)CC3)cc2)n1 [Example 330, N-[1-(1-methyl-1H-tetrazol-5-yl)piperidin-4-yl]-4-(6-methylfuro[3,2-c]pyridin-4-yl)benzamide]",1.7
19,"O=C(NC1CCN(c2ncc(CO)o2)CC1)c1ccc(-c2nccc3occc23)cc1 [Example 255, 4-(furo[3,2-c]pyridin-4-yl)-N-{1-[5-(hydroxymethyl)oxazol-2-yl]piperidin-4-yl}benzamide]",1.5
20,"O=C(N[C@H]1CC[C@H](OCC2(O)CC2)CC1)c1ccc(-c2nccc3occc23)c(F)c1 [Example 347, 3-fluoro-4-(furo[3,2-c]pyridin-4-yl)-N-(trans-4-[(1-hydroxycyclopropyl)methoxy]cyclohexyl)benzamide]",2
21,"O=C(NC1CCN(c2ncc(Br)cn2)CC1)c1ccc(-c2nccc3occc23)cc1 [Example 154, N-[1-(5-bromopyrimidin-2-yl)piperidin-4-yl]-4-(furo[3,2-c]pyridin-4-yl)benzamide]",6.3
22,"Cc1cc2occc2c(-c2ccc(C(=O)N[C@H]3CC[C@H](C(C)(C)O)CC3)cc2F)n1 [Example 321, 3-fluoro-N-[trans-4-(2-hydroxypropan-2-yl)cyclohexyl]-4-(6-methylfuro[3,2-c]pyridin-4-yl)benzamide]",5.5
